Measurements taken from patent US7829728B2, “Diarymethyl and related compounds” (Theravance, Inc., priority 2003, dated 2010).

Assays:
[1] = target: T1, M3 muscarinic receptor (hM3) (Homo sapiens, UniProt P20309); experiment: Radioligand binding assay for muscarinic receptors (Assay Test Procedure B); settings: [3H]-NMS displacement, CHO cell membranes expressing hM3
T1 construct: expressed in transfected cells; host or cells: CHO cells, membranes
Experimental: CHO cell lines stably expressing cloned human hM1, hM2, hM3 and hM4 muscarinic receptor subtypes, respectively, were grown to near confluency in HAM's F-12 media supplemented with 10% FBS and 250 μg/mL Geneticin. The cells were grown in a 5% CO2, 37° C. incubator and lifted with 2 mM EDTA in dPBS. Cells were collected by 5 minute centrifugation at 650×g, and cell pellets were either stored frozen at −80° C. or membranes were prepared immediately for use. For membrane preparation, cell pellets were resuspended in lysis buffer and homogenized with a Polytron PT-2100 tissue disrupter (Kinematica AG; 20 seconds×2 bursts). Crude membranes were centrifuged at 40,000×g for 15 minutes at 4° C. […] The protein concentration of the membrane suspension was determined by the method described in Lowry et al., 1951, Journal of Biochemistry, 193, 265. […]
Radioligand binding assays for cloned human muscarinic receptors were performed in 96-well microtiter plates in a total assay volume of 100 μL. […] Filter plates were rinsed three times with wash buffer (10 mM HEPES) to remove unbound radioactivity. […] The plates were then counted in a PerkinElmer Topcount liquid scintillation counter (PerkinElmer Inc., Wellesley, Mass.). Binding data were analyzed by nonlinear regression analysis with the GraphPad Prism Software package (GraphPad Software, Inc., San Diego, Calif.) using the one-site competition model. […]

[2] = target: human β2 adrenergic receptor (Homo sapiens, UniProt P07550); experiment: Whole-cell cAMP Flashplate assay in CHO cell lines heterologously expressing human β2 adrenergic receptor (Assay Test Procedure C); format: cell-based; design: expressed in transfected cells; host or cells: CHO cells, membranes
Experimental: cAMP assays were performed in a radioimmunoassay format using the Flashplate Adenylyl Cyclase Activation Assay System with [^125I]-cAMP (NEN SMP004, PerkinElmer Life Sciences Inc., Boston, Mass.), according to the manufacturers instructions. For the determination of β receptor agonist potency (EC50), CHO-K1 cell lines stably expressing cloned human β1, β2 or β3 adrenergic receptors were grown to near confluency in HAM's F-12 media supplemented with 10% FBS and Geneticin (250 μg/mL). Cells were rinsed with PBS and detached in dPBS (Dulbecco's Phosphate Buffered Saline, without CaCl2 and MgCl2) containing 2 mM EDTA or Trypsin-EDTA solution (0.05% trypsin/0.53 mM EDTA). After counting cells in Coulter cell counter, cells were pelleted by centrifugation at 1,000 rpm and re-suspended in stimulation buffer containing IBMX (PerkinElmer Kit) pre-warmed to room temperature to a concentration of 1.6×10^6 to 2.8×10^6 cells/mL. About 60,000 to 80,000 cells per well were used in this assay. […] The amount of cAMP produced (pmol/well) was calculated based on the counts observed for the samples and cAMP standards as described in the manufacturer's user manual. Data were analyzed by nonlinear regression analysis with the GraphPad Prism Software package (GraphPad Software, Inc., San Diego, Calif.) with the sigmoidal equation. […]

Sequence of human β2 adrenergic receptor (P07550 whole entry): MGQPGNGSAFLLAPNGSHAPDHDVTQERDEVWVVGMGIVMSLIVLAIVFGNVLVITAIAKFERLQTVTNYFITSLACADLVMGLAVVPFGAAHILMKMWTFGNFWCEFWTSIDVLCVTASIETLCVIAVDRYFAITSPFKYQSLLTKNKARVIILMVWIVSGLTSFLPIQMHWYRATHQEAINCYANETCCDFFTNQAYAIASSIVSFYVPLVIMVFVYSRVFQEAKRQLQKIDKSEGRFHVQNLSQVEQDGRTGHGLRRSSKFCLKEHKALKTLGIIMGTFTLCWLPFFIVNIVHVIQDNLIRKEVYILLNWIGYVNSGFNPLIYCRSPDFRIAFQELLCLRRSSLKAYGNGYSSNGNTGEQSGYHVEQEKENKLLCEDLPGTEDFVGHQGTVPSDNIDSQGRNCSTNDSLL
T1 sequence (P20309 whole entry): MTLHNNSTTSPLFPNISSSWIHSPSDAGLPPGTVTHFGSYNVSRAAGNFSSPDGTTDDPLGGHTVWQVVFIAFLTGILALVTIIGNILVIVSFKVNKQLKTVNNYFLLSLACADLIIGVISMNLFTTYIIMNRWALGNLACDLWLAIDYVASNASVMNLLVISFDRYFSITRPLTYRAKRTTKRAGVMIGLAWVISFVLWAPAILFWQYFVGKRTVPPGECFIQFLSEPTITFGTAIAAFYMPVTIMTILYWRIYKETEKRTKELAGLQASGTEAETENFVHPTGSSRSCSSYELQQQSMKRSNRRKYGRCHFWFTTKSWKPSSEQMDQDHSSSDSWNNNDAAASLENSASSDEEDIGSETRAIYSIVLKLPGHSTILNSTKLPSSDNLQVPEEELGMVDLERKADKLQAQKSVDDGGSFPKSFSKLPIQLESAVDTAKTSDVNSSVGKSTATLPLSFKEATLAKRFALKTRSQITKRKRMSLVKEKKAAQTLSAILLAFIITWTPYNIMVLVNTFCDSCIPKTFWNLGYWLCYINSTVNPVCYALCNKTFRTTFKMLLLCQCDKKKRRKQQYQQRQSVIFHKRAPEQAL

- Ki [1]: < 50 nM
- EC50 ([2]; cAMP, CHO-K1 cells expressing cloned human β2 receptor): < 10 nM
- ratio of EC50(β1)/EC50(β2) ([2]; receptor subtype selectivity, functional cAMP, human β1 versus β2): greater than 10
SMILES: NC(=O)C(c1ccccc1)(c1ccccc1)[C@@H]1CCN(CCCCCCCCCNCC(O)c2ccc(O)c3[nH]c(=O)ccc23)C1 (mixture of isomers) [Example 1, 2-((S)-1-{9-[2-Hydroxy-2-(8-hydroxy-2-oxo-1,2-dihydroquinolin-5-yl)ethylamino]-nonyl}pyrrolidin-3-yl)-2,2-diphenylacetamide]
